According to PubChem BioAssay (NCI):
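Results reflect a 48-hour exposure of cells in 96-well plates to compound at five concentrations. TGI: total growth inhibition.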

Legend:
Assay in all cases: inhibition of tumour cell growth, NCI panel, 48 h
HCC-2998 colon = tested on: HCC-2998 colon
UO-31 renal = tested on: UO-31 renal
MCF7 breast = tested on: MCF7 breast
BT-549 breast = tested on: BT-549 breast
LOX IMVI melanoma = tested on: LOX IMVI melanoma
KM20L2 colon = tested on: KM20L2 colon
SNB-19 CNS = tested on: SNB-19 CNS
NCI-H23 lung = tested on: NCI-H23 lung
SNB-75 CNS = tested on: SNB-75 CNS
K-562 leukemia = tested on: K-562 leukemia
M14 melanoma = tested on: M14 melanoma
NCI-H226 lung = tested on: NCI-H226 lung
MDA-N = tested on: MDA-N
TK-10 renal = tested on: TK-10 renal
OVCAR-8 ovarian = tested on: OVCAR-8 ovarian
KM12 colon = tested on: KM12 colon
RXF 393 renal = tested on: RXF 393 renal
HCT-15 colon = tested on: HCT-15 colon
HS 578T breast = tested on: HS 578T breast
UACC-257 melanoma = tested on: UACC-257 melanoma
NCI-H460 lung = tested on: NCI-H460 lung
SK-MEL-5 melanoma = tested on: SK-MEL-5 melanoma
OVCAR-4 ovarian = tested on: OVCAR-4 ovarian
NCI/ADR-RES ovarian = tested on: NCI/ADR-RES ovarian
U251 CNS = tested on: U251 CNS
CCRF-CEM leukemia = tested on: CCRF-CEM leukemia
XF 498 CNS = tested on: XF 498 CNS
MDA-MB-435 = tested on: MDA-MB-435
LXFL 529 NSCLC = tested on: LXFL 529 NSCLC
HOP-62 NSCLC = tested on: HOP-62 NSCLC
HOP-92 NSCLC = tested on: HOP-92 NSCLC
OVCAR-3 ovarian = tested on: OVCAR-3 ovarian
DU-145 prostate = tested on: DU-145 prostate
OVCAR-5 ovarian = tested on: OVCAR-5 ovarian
IGROV1 ovarian = tested on: IGROV1 ovarian
HOP-18 NSCLC = tested on: HOP-18 NSCLC
SNB-78 CNS = tested on: SNB-78 CNS
HT29 colon = tested on: HT29 colon
HCT-116 colon = tested on: HCT-116 colon
UACC-62 melanoma = tested on: UACC-62 melanoma
RXF-631 renal = tested on: RXF-631 renal
A549 NSCLC = tested on: A549 NSCLC
SK-OV-3 ovarian = tested on: SK-OV-3 ovarian
SF-268 CNS = tested on: SF-268 CNS
SN12C renal = tested on: SN12C renal
ACHN renal = tested on: ACHN renal
SW-620 colon = tested on: SW-620 colon
SK-MEL-2 melanoma = tested on: SK-MEL-2 melanoma
DLD-1 colon = tested on: DLD-1 colon
DMS 114 small cell lung = tested on: DMS 114 small cell lung
MDA-MB-231 breast = tested on: MDA-MB-231 breast
SR leukemia = tested on: SR leukemia
EKVX NSCLC = tested on: EKVX NSCLC
A498 renal = tested on: A498 renal
NCI-H522 lung = tested on: NCI-H522 lung
M19-MEL melanoma = tested on: M19-MEL melanoma
CAKI-1 renal = tested on: CAKI-1 renal
HL-60(TB) leukemia = tested on: HL-60(TB) leukemia
SK-MEL-28 melanoma = tested on: SK-MEL-28 melanoma
786-0 renal = tested on: 786-0 renal
COLO 205 colon = tested on: COLO 205 colon
PC-3 prostate = tested on: PC-3 prostate
SF-539 CNS = tested on: SF-539 CNS
SF-295 CNS = tested on: SF-295 CNS
MALME-3M melanoma = tested on: MALME-3M melanoma
MOLT-4 leukemia = tested on: MOLT-4 leukemia

## CC(C)Cc1ccc(C(C)/C=C2\CCC(CN3CCOCC3)C2=O)cc1 (stereo unspecified)
HCC-2998 colon
  TGI: 24.1 µM
UO-31 renal
  TGI: 21.8 µM
MCF7 breast
  TGI: 19.9 µM
BT-549 breast
  TGI: 35.2 µM
LOX IMVI melanoma
  TGI: 7.73 µM
KM20L2 colon
  TGI: 31.5 µM
SNB-19 CNS
  TGI: 21.4 µM
NCI-H23 lung
  TGI: 29.4 µM
SNB-75 CNS
  TGI: 22.1 µM
K-562 leukemia
  TGI: 12.4 µM
M14 melanoma
  TGI: 15.9 µM
NCI-H226 lung
  TGI: 35.5 µM
MDA-N
  TGI: 24.7 µM
TK-10 renal
  TGI: 14.9 µM
OVCAR-8 ovarian
  TGI: 12.3 µM
KM12 colon
  TGI: 16.9 µM
RXF 393 renal
  TGI: 22 µM
HCT-15 colon
  TGI: 16.4 µM
HS 578T breast
  TGI: > 100 µM
UACC-257 melanoma
  TGI: 14.7 µM
NCI-H460 lung
  TGI: 33.8 µM
SK-MEL-5 melanoma
  TGI: 24.3 µM
OVCAR-4 ovarian
  TGI: 33.4 µM
NCI/ADR-RES ovarian
  TGI: 29.3 µM
U251 CNS
  TGI: 27.7 µM
CCRF-CEM leukemia
  TGI: 17.8 µM
XF 498 CNS
  TGI: 30 µM
MDA-MB-435
  TGI: 20.2 µM
LXFL 529 NSCLC
  TGI: 4.09 µM
HOP-62 NSCLC
  TGI: 19.3 µM
HOP-92 NSCLC
  TGI: 39.7 µM
OVCAR-3 ovarian
  TGI: 9.95 µM
DU-145 prostate
  TGI: 26.6 µM
OVCAR-5 ovarian
  TGI: 35.9 µM
IGROV1 ovarian
  TGI: 19.8 µM
HOP-18 NSCLC
  TGI: 19.2 µM
SNB-78 CNS
  TGI: > 72.8 µM
HT29 colon
  TGI: 16.7 µM
HCT-116 colon
  TGI: 18.7 µM
UACC-62 melanoma
  TGI: 25.6 µM
RXF-631 renal
  TGI: 41.2 µM
A549 NSCLC
  TGI: 34.8 µM
SK-OV-3 ovarian
  TGI: 32.8 µM
SF-268 CNS
  TGI: 15.9 µM
SN12C renal
  TGI: 21.5 µM
ACHN renal
  TGI: 29.4 µM
SW-620 colon
  TGI: 10.8 µM
SK-MEL-2 melanoma
  TGI: 31.3 µM
DLD-1 colon
  TGI: 9.36 µM
DMS 114 small cell lung
  TGI: 42.4 µM
MDA-MB-231 breast
  TGI: 4.2 µM
SR leukemia
  TGI: 13.8 µM
EKVX NSCLC
  TGI: 32.8 µM
A498 renal
  TGI: 27 µM
NCI-H522 lung
  TGI: 15.4 µM
M19-MEL melanoma
  TGI: 28.8 µM
CAKI-1 renal
  TGI: 33.5 µM
HL-60(TB) leukemia
  TGI: 20.7 µM
SK-MEL-28 melanoma
  TGI: 22.8 µM
786-0 renal
  TGI: 3.21 µM
COLO 205 colon
  TGI: 48.4 µM
PC-3 prostate
  TGI: 25.4 µM
SF-539 CNS
  TGI: 19.8 µM
SF-295 CNS
  TGI: 29.3 µM
MALME-3M melanoma
  TGI: 32 µM
MOLT-4 leukemia
  TGI: 11 µM
